Experimental data taken from patent US9730940B2, “Purine inhibitors of human phosphatidylinositol 3-kinase delta” (priority 2012, dated 2017).

What follows are compounds tested against PI3K-alpha (Homo sapiens (Human), UniProt P42336) (assay: HTRF PI3K biochemical assay, alpha isoform). Conditions: ratio PI3K-alpha IC50 value/PI3K-delta IC50 value.
Excerpt: HTRF PI3K Biochemical Assay to Measure Intrinsic Potency of Compound Inhibitors
The PI3-Kinase biochemical assays were developed to measure the intrinsic potency and compound dependent inhibition of the alpha, beta, delta, and gamma PI3K isoform enzymes. This assay was developed and further optimized from a kit produced by Upstate (Millipore catalog #33-047) and has been configured for HTS and SAR screening. Briefly, this procedure exploits the exquisite specificity and high affinity binding of enzyme reaction substrate phosphatidyl(3,4,5)triphosphate (PIP3) to the GRP1 pleckstrin homology (PH) domain to generate the signal. In the absence of PIP3, an HTRF (Homogeneous Time-Resolved Fluorescence energy transfer) complex is formed consisting of europium (Eu)-labeled anti-GST, GST tagged GRP1-PH domain, biotin-PIP3 and streptavidin conjugated APC. The native PIP3 produced by PI3-Kinase activity disrupts in a competitive manner the biotin-PIP3 from the PH domain, resulting in the loss of energy transfer (HTRF complex) and a decrease in the signal. The format of this assay is the same for all 4 isoforms of PI3K; the differences lie in the concentration of enzyme used to achieve robust assay window. The alpha, beta, and delta assays are run at 0.5, 1, and 0.3 nM enzymes and the gamma assay is run at 5 nM enzyme. The ATP concentration is 100 uM in the alpha, beta, and delta assays and 50 uM ATP in the gamma assay. All reactions are run at 5 uM PIP2.
Compounds are serially diluted (3-fold in 100% DMSO) across a 384-well polypropylene source plated from column 3 to column 12 and column 13 to column 22, to yield 10 concentration dose response for each test compound. Columns 1, 2, 23 and 24 contain either only DMSO or pharmacological known control inhibitor.
The PI3-Kinase biochemical assay was optimized using the HTRF kit provided by Upstate (Millipore). The assay kit contains six reagents: 1) 4× Reaction Buffer; 2) native PIP2 (substrate); 3) Stop (EDTA); 4) Detection Mix A (Streptavidin-APC); 5) Detection Mix B (Eu-labeled Anti-GST plus GST-tagged PH-domain); 6) Detection Mix C.
PI3Kinase Reaction Buffer is prepared by dilution the stock 1:4 with de-ionized water. […] Enzyme addition and compound pre-incubation are initiated by the addition of 1.25 ul of PI3K (at twice its final concentration) in the 1× reaction buffer to all wells using a BioRaptor. Plates are incubated at room temperature for 15 minutes. Reactions are initiated by addition of 1.25 ul of 2× substrate solution (PIP2 and ATP in 1× reaction buffer) using BioRaptor. Plates are incubated in humidified chamber at room temperature for one hour. Reactions are quenched by addition of 0.625 uL of stop solution to all wells using the BioRaptor. The quenched reactions are then processed to detect product formation by adding 0.625 uL of Detection Solution to all wells using the BioRaptor (Detection mix C, Detection Mix A, and Detection Mix B combined together in an 18:1:1 ratio prepared 2 hours prior to use).
The loss of the HTRF signal is due to the displacement of biotinylated-PIP3 from the PH domain by the PI3K-dependent conversion of PIP2 to PIP3. This loss of signal is nonlinear with respect to both increasing product and time. This non-linear detection will impact accuracy of IC50 calculations; therefore, there is a need for a correction factor to obtain more accurate IC50 values. This correction is derived from a PIP3 standard curve run in a separate assay plate. All data were calculated using the ratio of acceptor (APC) to donor (Europium) fluorescence in each well of the assay plate. […] An IC50 was then calculated fitting the % inhibition data to the equation: % inhibition=min+(Max−min)/1+([inhibitor]/IC50)^n) where min is the % inhibition […], max is the signal in DMSO control, and n is the Hill slope.

Chain of PI3K-alpha (P42336 whole entry, looked up, canonical isoform): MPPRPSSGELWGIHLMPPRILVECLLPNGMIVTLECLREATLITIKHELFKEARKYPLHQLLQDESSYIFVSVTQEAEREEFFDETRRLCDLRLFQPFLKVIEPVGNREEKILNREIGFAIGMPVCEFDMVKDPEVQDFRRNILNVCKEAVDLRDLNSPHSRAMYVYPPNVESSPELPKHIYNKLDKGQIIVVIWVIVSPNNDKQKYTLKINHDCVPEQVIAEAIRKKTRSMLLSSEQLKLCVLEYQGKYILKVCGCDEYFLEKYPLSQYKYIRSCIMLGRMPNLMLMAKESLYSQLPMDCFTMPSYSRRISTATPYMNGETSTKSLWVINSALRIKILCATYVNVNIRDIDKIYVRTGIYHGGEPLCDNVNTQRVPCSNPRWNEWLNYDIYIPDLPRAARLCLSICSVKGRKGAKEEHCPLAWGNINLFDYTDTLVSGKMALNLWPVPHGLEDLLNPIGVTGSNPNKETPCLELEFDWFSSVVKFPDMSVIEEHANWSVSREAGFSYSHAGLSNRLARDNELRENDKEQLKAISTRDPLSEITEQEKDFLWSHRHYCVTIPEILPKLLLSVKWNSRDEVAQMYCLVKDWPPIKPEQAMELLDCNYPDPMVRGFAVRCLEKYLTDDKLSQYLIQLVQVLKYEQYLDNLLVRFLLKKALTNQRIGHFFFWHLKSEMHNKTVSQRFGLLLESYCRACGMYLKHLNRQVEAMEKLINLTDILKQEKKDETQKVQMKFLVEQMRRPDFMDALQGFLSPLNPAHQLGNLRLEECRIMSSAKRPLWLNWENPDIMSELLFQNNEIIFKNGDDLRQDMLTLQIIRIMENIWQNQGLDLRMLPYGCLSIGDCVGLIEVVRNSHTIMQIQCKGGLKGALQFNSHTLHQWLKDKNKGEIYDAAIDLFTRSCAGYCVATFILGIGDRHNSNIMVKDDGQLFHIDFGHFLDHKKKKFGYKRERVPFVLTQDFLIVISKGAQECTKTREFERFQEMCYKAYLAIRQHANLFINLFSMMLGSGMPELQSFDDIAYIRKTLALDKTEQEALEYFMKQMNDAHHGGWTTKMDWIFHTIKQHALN
Chain of PI3K-alpha (P27986 whole entry partner, looked up, canonical isoform): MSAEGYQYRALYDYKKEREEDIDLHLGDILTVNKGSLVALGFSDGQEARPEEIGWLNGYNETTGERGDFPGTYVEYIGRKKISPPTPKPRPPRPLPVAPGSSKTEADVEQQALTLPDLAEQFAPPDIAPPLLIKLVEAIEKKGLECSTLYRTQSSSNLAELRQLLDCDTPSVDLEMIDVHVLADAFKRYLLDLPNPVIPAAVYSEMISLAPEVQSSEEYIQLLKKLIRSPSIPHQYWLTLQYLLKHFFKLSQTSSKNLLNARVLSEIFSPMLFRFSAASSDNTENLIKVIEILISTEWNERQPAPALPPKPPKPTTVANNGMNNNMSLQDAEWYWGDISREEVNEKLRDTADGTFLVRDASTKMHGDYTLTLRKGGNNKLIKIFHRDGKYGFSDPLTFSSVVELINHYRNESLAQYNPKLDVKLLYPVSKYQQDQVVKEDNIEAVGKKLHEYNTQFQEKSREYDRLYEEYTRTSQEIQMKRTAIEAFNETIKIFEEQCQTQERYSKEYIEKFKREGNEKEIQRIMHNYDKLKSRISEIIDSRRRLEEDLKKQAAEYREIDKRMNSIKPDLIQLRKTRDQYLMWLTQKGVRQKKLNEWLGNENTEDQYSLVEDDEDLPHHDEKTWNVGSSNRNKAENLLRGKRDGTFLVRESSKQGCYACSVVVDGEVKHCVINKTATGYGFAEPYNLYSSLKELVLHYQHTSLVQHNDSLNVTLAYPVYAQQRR

Row | Structure (SMILES) | Relative Selectivity versus PI3Kalpha
1 | Cn1c(-c2ccc(N3CCOCC3)nc2)nc2c(O[C@H]3CCN(C(=O)OC(C)(C)C)C3)ncnc21 [Compound 1-24, tert-butyl (3S)-3-{[9-methyl-8-(6-morpholin-4-ylpyridin-3-yl)-9H-purin-6-yl]oxy}pyrrolidine-1-carboxylate] | >2
2 | Cn1c(-c2ccc(-n3ccnc3)cc2)nc2c(O[C@H]3CCN(C(=O)OC(C)(C)C)C3)ncnc21 [Compound 1-25, tert-butyl (3S)-3-({8-[4-(1H-imidazol-1-yl)phenyl]-9-methyl-9H-purin-6-yl}oxy)pyrrolidine-1-carboxylate] | >10
3 | Cc1n[nH]cc1-c1nc2c(O[C@H]3CCN(C(=O)OC(C)(C)C)C3)ncnc2n1C [Compound 1-26, tert-butyl (3S)-3-{[9-methyl-8-(3-methyl-1H-pyrazol-4-yl)-9H-purin-6-yl]oxy}pyrrolidine-1-carboxylate] | >10
4 | Cn1c(-c2ccc(N3CCCC3)nc2)nc2c(O[C@H]3CCN(C(=O)OC(C)(C)C)C3)ncnc21 [Compound 1-27, tert-butyl (3S)-3-{[9-methyl-8-(6-pyrrolidin-1-ylpyridin-3-yl)-9H-purin-6-yl]oxy}pyrrolidine-1-carboxylate] | >10
5 | Cn1c(-c2cncc3ccccc23)nc2c(O[C@H]3CCN(C(=O)OC(C)(C)C)C3)ncnc21 [Compound 1-28, tert-butyl (3S)-3-[(8-isoquinolin-4-yl-9-methyl-9H-purin-6-yl)oxy]pyrrolidine-1-carboxylate] | >10
6 | Cn1c(-c2ccc3[nH]ncc3c2)nc2c(O[C@H]3CCN(C(=O)OC(C)(C)C)C3)ncnc21 [Compound 1-29, tert-butyl (3S)-3-{[8-(1H-indazol-5-yl)-9-methyl-9H-purin-6-yl]oxy}pyrrolidine-1-carboxylate] | >10
7 | CCn1ncc(-c2nc3c(OC4CC(C)N(C(=O)OC(C)(C)C)C4)ncnc3n2C)c1C (stereo not drawn) [Compound 1-30, tert-butyl 4-((8-(1-ethyl-5-methyl-1H-pyrazol-4-yl)-9-methyl-9H-purin-6-yl)oxy)-2-methylpyrrolidine-1-carboxylate] | 3
8 | COC1CC(c2nc3c(OC4CCN(C(=O)OC(C)(C)C)C4)ncnc3n2C)C1 [Compound 1-31, (S)-tert-butyl 3-((8-(3-methoxycyclobutyl)-9-methyl-9H-purin-6-yl)oxy)pyrrolidine-1-carboxylate] | >5
9 | Cn1cnc2c(O[C@H]3CCN(C(=O)OC(C)(C)C)C3)ncnc21 [Compound 1-32, (S)-tert-butyl 3-((9-methyl-9H-purin-6-yl)oxy)pyrrolidine-1-carboxylate] | >7
10 | Cc1n[nH]c2ncc(-c3nc4c(O[C@H]5CCN(C(=O)OC(C)(C)C)C5)ncnc4n3C)cc12 [Compound 1-33, (S)-tert-butyl 3-((9-methyl-8-(3-methyl-1H-pyrazolo[3,4-b]pyridin-5-yl)-9H-purin-6-yl)oxy}pyrrolidine-1-carboxylate] | >10
11 | CCn1c(-c2cnc(OC)c(C)c2)nc2c(O[C@H]3CCN(C(=O)OC(C)(C)C)C3)ncnc21 [Compound 1-34, tert-butyl (3S)-3-{[9-ethyl-8-(6-methoxy-5-methylpyridin-3-yl)-9H-purin-6-yl]oxy}pyrrolidine-1-carboxylate] | >10
12 | CCn1c(-c2cnc(C(C)(C)C)s2)nc2c(O[C@H]3CCN(C(=O)OC(C)(C)C)C3)ncnc21 [Compound 1-35, tert-butyl (3S)-3-{[8-(2-tert-butyl-1,3-thiazol-5-yl)-9-ethyl-9H-purin-6-yl]oxy}pyrrolidine-1-carboxylate] | >10
13 | CCn1ncc(-c2nc3c(O[C@H]4CCN(C(=O)OC)C4)ncnc3n2C)c1C [Compound 1-36, methyl (3S)-3-{[8-(1-ethyl-5-methyl-1H-pyrazol-4-yl)-9-methyl-9H-purin-6-yl]oxy}pyrrolidine-1-carboxylate] | >10
14 | CCOC(=O)N1CC[C@H](Oc2ncnc3c2nc(-c2cnn(CC)c2C)n3C)C1 [Compound 1-37, ethyl (3S)-3-{[8-(1-ethyl-5-methyl-1H-pyrazol-4-yl)-9-methyl-9H-purin-6-yl]oxy}pyrrolidine-1-carboxylate] | >10
15 | CCn1ncc(-c2nc3c(O[C@H]4CCN(C(=O)OC(C)C)C4)ncnc3n2C)c1C [Compound 1-38, 1-methylethyl (3S)-3-{[8-(1-ethyl-5-methyl-1H-pyrazol-4-yl)-9-methyl-9H-purin-6-yl]oxy}pyrrolidine-1-carboxylate] | >10
16 | Cn1c(-c2cnc(C(C)(C)C)s2)nc2c(O[C@H]3CCN(C(=O)OC(C)(C)C)C3)ncnc21 [Compound 1-39, tert-butyl (3S)-3-{[8-(2-tert-butyl-1,3-thiazol-5-yl)-9-methyl-9H-purin-6-yl]oxy}pyrrolidine-1-carboxylate] | >10
17 | CCn1ncc(-c2nc3c(OC4CN(C(=O)OC(C)(C)C)C4)ncnc3n2C)c1C [Compound 1-40, tert-butyl 3-((8-(1-ethyl-5-methyl-1H-pyrazol-4-yl)-9-methyl-9H-purin-6-yl)oxy)azetidine-1-carboxylate] | >10
18 | CCn1ncc(-c2nc3c(O[C@H]4CCCN(C(=O)OC(C)(C)C)C4)ncnc3n2C)c1C [Compound 1-41, (S)-tert-butyl 3-((8-(1-ethyl-5-methyl-1H-pyrazol-4-yl)-9-methyl-9H-purin-6-yl)oxy)piperidine-1-carboxylate] | >10
19 | CCn1ncc(-c2nc3c(O[C@@H]4CCCN(C(=O)OC(C)(C)C)C4)ncnc3n2C)c1C [Compound 1-42, (R)-tert-butyl 3-((8-(1-ethyl-5-methyl-1H-pyrazol-4-yl)-9-methyl-9H-purin-6-yl)oxy)piperidine-1-carboxylate] | >2
20 | CCOC(=O)N1CC[C@H](Oc2ncnc3c2nc(-c2cnc(C)nc2)n3CC)C1 [Compound 1-43, (S)-ethyl 3-{[9-ethyl-8-(2-methylpyrimidin-5-yl)-9H-purin-6-yl]oxy}pyrrolidine-1-carboxylate] | >10
21 | CCn1c(-c2cnc(C)nc2)nc2c(OC3CN(C(=O)OC(C)(C)C)CC3F)ncnc21 [Compound 1-44, [(3S,4S) and (3R,4R)]-tert-butyl 3-{[9-ethyl-8-(2-methylpyrimidin-5-yl)-9H-purin-6-yl]oxy}-4-fluoropyrrolidine-1-carboxylate] | >10
22 | CCC1CN(C(=O)OCc2ccccc2)CC1Oc1ncnc2c1nc(-c1cnc(C)nc1)n2CC [Compound 1-45, [(3S,4R) and (3R,4S)]-benzyl 3-ethyl-4-{[9-ethyl-8-(2-methylpyrimidin-5-yl)-9H-purin-6-yl]oxy}pyrrolidine-1-carboxylate] | >10
23 | CCn1c(-c2cnc(C)nc2)nc2c(OC3CN(C(=O)OC(C)(C)C)CC3O)ncnc21 [Compound 1-46, [(3S,4S) and (3R,4R)]-tert-butyl 3-{[9-ethyl-8-(2-methylpyrimidin-5-yl)-9H-purin-6-yl]oxy}-4-hydroxypyrrolidine-1-carboxylate] | >10
24 | CCn1c(-c2cnc(C)nc2)nc2c(OC3CN(C(=O)OC(C)(C)C)CC3(F)F)ncnc21 (stereo not drawn) [Compound 1-47, (4S and 4R)-tert-butyl 4-{[9-ethyl-8-(2-methylpyrimidin-5-yl)-9H-purin-6-yl]oxy}-3,3-difluoropyrrolidine-1-carboxylate] | >10
